Measured values taken from US10017554B2, “Neuropeptide Y-derived peptides” (University of Copenhagen, priority 2013, dated 2018).

System: hippocampal neurons
Test: Neurite outgrowth in cultures of rat hippocampal neurons, embryonic day 19, 24 h
Assay type: cell-based
Conditions: for Neuritogenic effect 3 μM NPY fragment (% of control): 3 μM peptide; for neurite outgrowth / neuritogenic effect (in words): E19 prenatal rat hippocampal cultures
Method: When pharmacological inhibitors or antagonist are applied these are added to cultures 10 min prior to peptide addition. When soluble immunoglobulin modules are used, these are preincubated with peptide solution for 10 min before addition of the mix to the cultures. To knock down NCAM expression, the neurons were transfected with a p-GFP—V-RS vector that encodes short-hairpin RNA targeting NCAM (OriGene, Rockville, Md., USA) using a nucleofector device and a Rat Neuron Nucleofector kit (Amaxa, Gaithersburg, Md., USA). NCAM knock-out mice (C57BI/6JZtm) were a kind gift from prof. Herbert Hildebrandt (Hannover Medical School) and were created as previous described (Cremer et al., 1994). The neurons were fixed, immunostained, and micrographs were recorded and evaluated as previously described (Rønn et al., 2000; Nielsen et al., 2009). Cf. FIGS. 3-9
Neurite outgrowth in cultures of hippocampal neurons from wistar rats, embryonic stage day 19, incubated for 24 hours (37° C., 5% CO2) in supplemented Neurobasal medium with NPY fragments added; effect compared to un-stimulated controls (set to 100%). Values are mean normalized to un-stimulated controls±standard error of mean (SEM). *P<0.05, […], […], Student's t-test versus un-stimulated control.

[1] = un-stimulated controls set to 100%, mean ± SEM

Row | Sequence | Neuritogenic effect 3 μM NPY fragment (% of control) [1] | Neuritogenic effect 1 μM NPY fragment (% of control) (1 μM peptide, un-stimulated controls set to 100%, mean ± SEM) | neurite outgrowth / neuritogenic effect (in words)
1 | ALRHYINLITRQRA (listed as Homo sapiens) [NPY23-36 ala36] | 91.7 (n = 1) % of control | – | –
2 | PAEDMARYYSALRHYINLITRQR (listed as Homo sapiens) [NPY13-35] | 275.8 ± 31.2 % of control | 164.2 ± 7.2 % of control | –
3 | RQRTILNIYHRLASYYRAMDEAPADEGPNDPKS (listed as Homo sapiens) [NPY3-35 reversed sequence, reference compound] | – | – | did not induce the same neuritogenic effects
4 | SALRHYINLITRQR (listed as Homo sapiens) [NPY22-35] | – | – | does not
5 | YSALRHYINLITRQR (listed as Homo sapiens) [NPY21-35] | 266.4 ± 26.6 % of control | – | induce neurite outgrowth
